Reference: PubChem BioAssay (NCI)
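48-hour exposure; five concentrations; linearly interpolated endpoints. At the GI50, growth is halved. TGI is the concentration that stops growth completely.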

What was measured:
Experiment in all cases: growth of human tumour cells (NCI), 48 h
NCI-H522 lung = system: NCI-H522 lung
SNB-75 CNS = system: SNB-75 CNS
HOP-62 NSCLC = system: HOP-62 NSCLC
K-562 leukemia = system: K-562 leukemia
OVCAR-4 ovarian = system: OVCAR-4 ovarian

Compound | TGI (NCI-H522 lung) | TGI (SNB-75 CNS) | TGI (HOP-62 NSCLC) | TGI (K-562 leukemia) | TGI (OVCAR-4 ovarian) | GI50 (NCI-H522 lung) | GI50 (SNB-75 CNS) | GI50 (HOP-62 NSCLC) | GI50 (K-562 leukemia) | GI50 (OVCAR-4 ovarian)
COCc1nc(C#N)c(N)o1 | > 10 µM | > 10 µM | > 10 µM | > 10 µM | > 10 µM |  |  |  |  | 
O[C@@H]1CCCCN1Cc1cc2cc3c(cc2c2cc(OCc4ccccc4)ccc12)OCO3 | 2.91 µM | 3.08 µM | 2.89 µM | 4.14 µM | 2.9 µM | 1.49 µM | 1.66 µM | 1.55 µM | 1.45 µM | 1.45 µM
O=C1C(CN2CCCC2)CCC1CN1CCCC1 (stereo not given) | 3.52 µM | 33.4 µM | > 100 µM | > 33.4 µM | 48.7 µM |  |  |  |  | 
COc1ccccc1Nc1nc(N)nc(N)c1N | 67 µM | > 100 µM | > 100 µM | > 100 µM | > 100 µM |  |  |  |  | 
O=C(c1ccccc1)N1N=C(C(F)(F)F)CC1(O)C(F)(F)F (stereo not given) | > 100 µM | > 100 µM | > 100 µM | > 100 µM | > 100 µM |  |  |  |  | 
O=[N+]([O-])c1cccc(-c2ccc([C@H]3CC(c4ccc(Cl)cc4)=NN3)o2)c1 | 59.1 µM | 48.4 µM | 57.9 µM | 55 µM | 68.6 µM |  |  |  |  | 
C[C@H]1CC(=O)C[C@@H]2CC[C@@H]3[C@H](CC[C@]4(C)C(OC(=O)c5cccc6c(=O)c7ccccc7[nH]c56)CC[C@@H]34)[C@]21C (stereo not given in full) | 72.8 µM | 92.8 µM | > 100 µM | > 100 µM | > 100 µM |  |  |  |  | 
CC(=O)C1=C(C)N2C(=NC3=C(CCc4ccccc43)C2c2ccc(Cl)cc2)S1 (stereo not given) | 82.7 µM | > 100 µM | > 100 µM | > 56.2 µM | > 100 µM |  |  |  |  | 
CCOP(=O)(OCC)/C(F)=C/c1ccc(F)cc1 | > 100 µM | > 100 µM | > 100 µM | > 100 µM | > 100 µM |  |  |  |  | 
Nc1nc(NCc2ccccc2)cc(NCc2ccccc2)n1 | 19.2 µM | 13.1 µM | 41.7 µM | > 100 µM | 28.3 µM |  |  |  |  | 
CC(C)CCNC(=O)c1ccc(CNC(=O)/C=C/c2ccc3c(c2)-c2ccccc2C3)cc1 | > 100 µM | 53.3 µM | 44.8 µM | > 100 µM | 80.1 µM |  |  |  |  | 
Cc1ccc(Nc2nc3ccccc3nc2NS(=O)(=O)c2ccc(N)cc2)cc1 | > 100 µM | > 100 µM | > 100 µM | > 100 µM | 71 µM |  |  |  |  | 
CCOC(=O)c1sc(N)nc1N1CCCC1 | > 100 µM | > 100 µM | > 100 µM | > 100 µM | > 100 µM |  |  |  |  | 
O=c1cc(O)c1=O | > 100 µM | > 100 µM | > 100 µM | > 100 µM | > 100 µM |  |  |  |  | 
COc1cc(Nc2nc(NS(=O)(=O)c3cc(C)c(Cl)cc3S)n[nH]2)cc(OC)c1OC | > 100 µM | > 100 µM | > 100 µM | > 100 µM | > 100 µM |  |  |  |  | 
COc1cccc(O)c1-c1cc(=O)c2c(O)c(OC)c(OC)c(OC)c2o1 | 87.9 µM | 76.1 µM | 44.4 µM | > 100 µM | > 100 µM |  |  |  |  | 
C=C1C(=O)O[C@H]2[C@@H]3O[C@@](C)(CC/C=C(\C)CCC[C@@H]2C)[C@H](O)C[C@@H]13 | 5.67 µM | 30.7 µM | 23.1 µM | > 100 µM | 34.8 µM |  |  |  |  | 
O=C(NNC(=O)c1cc2ccccc2[nH]1)c1cc2ccccc2[nH]1 | > 100 µM | > 100 µM | > 100 µM | > 100 µM | > 100 µM |  |  |  |  | 
CCOC(=O)n1c(=O)nc2c3c(ncn21)Oc1c(c(-c2ccccc2)nn1-c1ccccc1)C3c1ccc(Cl)cc1 (stereo not given) | 3.11 µM | 4.75 µM | 3.15 µM | 2.41 µM | 2.47 µM |  |  |  |  | 
O=C(O)CN1CCN2CCOCCN(CC1)CCN(CC(=O)O)CC2 | > 100 µM | > 100 µM | > 100 µM | > 100 µM | > 100 µM |  |  |  |  | 
Cn1c2ccccc2n2c3ccccc3c3nnc(N)c-3c12 | 26.2 µM | 11.8 µM | > 86.5 µM | > 100 µM | > 100 µM |  |  |  |  | 
NS(=O)(=O)c1ccc(NNc2c3ccccc3nc3c(C(=O)Nc4ccc(S(N)(=O)=O)cc4)cccc23)cc1 | 50.8 µM | > 100 µM | > 100 µM | 62.1 µM | 75.1 µM |  |  |  |  | 
COC(=O)[C@@H](N1C(=O)c2ccccc2C1=O)C1(C)CC(Cl)=NO1 (stereo not given in full) | 79.1 µM | 35.9 µM | 38.9 µM | > 100 µM | > 100 µM |  |  |  |  | 
CC(C)C1CC(CO)(CNc2nc(N)nc(Cl)c2C=O)C1 (stereo not given) | 1.14 µM | 15.4 µM | 37 µM | 6.15 µM | 10.9 µM |  |  |  |  | 
Cc1nnc(NS(=O)(=O)c2ccc(N=Nc3c(O)c(C(=O)O)cc4ccccc34)cc2)s1 | > 100 µM | > 100 µM | > 100 µM | > 100 µM | > 100 µM |  |  |  |  | 
CCc1c(N=[N+]=[N-])c2ccccc2oc1=O | > 100 µM | > 100 µM | > 100 µM | > 100 µM | > 100 µM |  |  |  |  | 
